From PubChem BioAssay (NCI) come the findings set out here.

Where “and” joins values, the source holds several entries; their conditions need not be identical. Identical values can stand only once.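 Results reflect a 48-hour exposure of cells in 96-well plates to compound at five concentrations. Abbreviation: GI50, concentration required for 50% inhibition of growth. TGI: concentration producing complete growth inhibition.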

Test systems include HCC-2998 colon; HOP-62 NSCLC; SK-OV-3 ovarian; SF-268 CNS; SK-MEL-5 melanoma; MALME-3M melanoma; NCI-H522 lung; HCT-116 colon; DU-145 prostate.
Assay in all cases: NCI-60 cell line screen, 48 h

Take `CC(=O)[CH-]C(=O)c1ccccc1.CC(=O)[CH-]C(=O)c1ccccc1.CC(=O)[CH-]C(=O)c1ccccc1.[Nd+3].[OH3+]`: the GI50 in the test on HCC-2998 colon was 85.7 µM; in the test with HOP-62 NSCLC it was 31.9 µM; in the test with SK-OV-3 ovarian, 31.7 µM; in the test on SF-268 CNS, 41.3 µM; in the test on SK-MEL-5 melanoma, 38.1 µM; in the test with MALME-3M melanoma, 27.2 µM. Besides, the results for the GI50 in the test with NCI-H522 lung and in the test on HCT-116 colon were 12.1 µM and 46.7 µM, respectively. For the same molecule, the TGI in the test with HCC-2998 colon was above 100 µM; in the test with HOP-62 NSCLC it was above 100 µM; in the test with SK-OV-3 ovarian it was 99 µM; in the test with SF-268 CNS, above 100 µM; in the test with SK-MEL-5 melanoma, above 100 µM; in the test on MALME-3M melanoma, 94.4 µM. In addition, the TGI in the test on NCI-H522 lung and in the test on HCT-116 colon was above 100 µM in each case.
Consider `COC(=O)[C@@H]1Cc2c([nH]c3ccccc23)[C@H](c2ccccc2)N1`, for which the TGI was 91.8 µM in the test on HCC-2998 colon; 89.7 µM in the test on SK-OV-3 ovarian; above 100 µM in the test on SF-268 CNS; 63.4 µM in the test with SK-MEL-5 melanoma; above 100 µM in the test on MALME-3M melanoma; 53.1 µM in the test on NCI-H522 lung. Further, the TGI with HCT-116 colon was above 100 µM.
Regarding `Clc1cccc(C2N3CCCCC3[C@@H]3c4[nH]c5ccccc5c4CCN23)c1` (stereo not given in full), the TGI in the test on HCC-2998 colon was 99.7 µM; in the test on HOP-62 NSCLC it was above 100 µM; with SK-OV-3 ovarian it was above 100 µM; with SF-268 CNS, above 100 µM; in the test with SK-MEL-5 melanoma, 34.1 µM; in the test with MALME-3M melanoma, 42.2 µM. This molecule also had a TGI with HCT-116 colon of 30.8 µM.
For the molecule `O=C(Nc1ccc(Cl)c(Cl)c1)C(=O)C(C(=O)c1ccccc1-c1ccccc1)C1OC(=O)c2ccccc21` (stereo not given), the TGI in the test with HCC-2998 colon turned out to be 27.6 µM; in the test with HOP-62 NSCLC it was 27.4 µM; with SK-OV-3 ovarian it was 78.3 µM; in the test on SF-268 CNS it was 72.2 µM; in the test with SK-MEL-5 melanoma it was 30.3 µM; in the test on NCI-H522 lung, 20.6 µM. In the test on HCT-116 colon, the TGI turned out to be 22.3 µM.
`Nc1c(Cl)ncnc1NCCCCCCCCCCCCNc1ncnc(Cl)c1N`: the TGI with HCC-2998 colon was 56.9 µM; in the test on HOP-62 NSCLC, 6.82 µM; with SK-OV-3 ovarian, above 100 µM; in the test on SF-268 CNS, above 100 µM; in the test with SK-MEL-5 melanoma, 3.88 µM; with MALME-3M melanoma it was above 100 µM. Moreover, the TGI with HCT-116 colon turned out to be 6.05 µM.
In the case of `O=C(Nc1ccc(Cl)cc1Cl)OC(Cn1cncn1)c1ccc(Cl)cc1Cl` (stereo not given), the TGI in the test on HOP-62 NSCLC was 34.5 µM; in the test on SK-OV-3 ovarian, 34.7 µM; in the test with SF-268 CNS, 31.9 µM; in the test on SK-MEL-5 melanoma, 30.7 µM; in the test on MALME-3M melanoma it was 29.3 µM; in the test on NCI-H522 lung, 34.8 µM. Moreover, the TGI with HCT-116 colon stood at 27.1 µM.
For the molecule `COC(=O)[C@@]12CC(C(C)C)[C@H]3CC(C(=O)C=C1OC)[C@H]32` (stereo not given in full), the TGI with HCC-2998 colon, in the test with HOP-62 NSCLC, with SK-OV-3 ovarian, in the test with SF-268 CNS, with SK-MEL-5 melanoma and in the test with MALME-3M melanoma was above 100 µM each time. This molecule returned a TGI in the test with HCT-116 colon above 100 µM.
With `CNS(=O)(=O)NNS(=O)(=O)c1ccc(OC)cc1`, the TGI with HCC-2998 colon, with HOP-62 NSCLC, with SK-OV-3 ovarian, in the test on SF-268 CNS, in the test on SK-MEL-5 melanoma and with MALME-3M melanoma was above 100 µM each time. The TGI in the test with NCI-H522 lung and in the test on HCT-116 colon was above 100 µM in each case.
Take `COC(=O)C1C(=O)O[C@@H](c2cc(OC)c(OC)cc2OC)C1C(=O)OC` (mixture of isomers): the TGI in the test with HCC-2998 colon, with HOP-62 NSCLC, in the test on SK-OV-3 ovarian, in the test on SF-268 CNS, in the test on SK-MEL-5 melanoma and in the test with MALME-3M melanoma was above 100 µM each time. Further, the TGI in the test on NCI-H522 lung and in the test with HCT-116 colon was above 100 µM throughout.
Turning to `NC1=NN(c2ccccc2)C(=O)C1C(=O)C(=O)Nc1ccc(Cl)c(Cl)c1` (stereo not given), the TGI with HCC-2998 colon, in the test with HOP-62 NSCLC, in the test with SK-OV-3 ovarian, with SF-268 CNS, in the test on SK-MEL-5 melanoma and in the test with MALME-3M melanoma was above 100 µM in each case. For the same molecule, the TGI with NCI-H522 lung and in the test on HCT-116 colon was above 100 µM each time.
Turning to `COc1ccc([C@@]23Oc4cc(OC)cc(OC)c4[C@]2(O)[C@H](O)[C@H](C(N)=O)[C@H]3c2ccccc2)cc1`, the TGI in the test with HCC-2998 colon was 0.0697 µM and 0.0194 µM; in the test on HOP-62 NSCLC it was 0.216 µM and 0.0916 µM; with SF-268 CNS it was 0.0913 µM and < 0.01 µM; with DU-145 prostate, 0.105 µM and < 0.0219 µM; in the test with SK-MEL-5 melanoma, 0.0329 µM and < 0.0139 µM; with MALME-3M melanoma, 0.0909 µM and < 0.01 µM. Besides, the TGI in the test on NCI-H522 lung is 0.0737 µM and < 0.0104 µM; in the test with HCT-116 colon it was 0.488 µM. In addition, the GI50 in the test with SF-268 CNS is below 0.0113 µM; in the test on MALME-3M melanoma, 0.0161 µM.
On to `COc1c(-c2ccccc2)nc2ccc(Oc3ccccc3)nn12`, for which the TGI is above 100 µM in the test with HCC-2998 colon; above 100 µM with HOP-62 NSCLC; above 100 µM with SK-OV-3 ovarian; above 100 µM with SF-268 CNS; above 63.2 µM in the test with SK-MEL-5 melanoma; above 92.6 µM in the test with MALME-3M melanoma. The TGI with NCI-H522 lung and in the test on HCT-116 colon was above 100 µM throughout.
For the molecule `Clc1cccc(-c2nnc(-c3nn(-c4ccccc4)c4nc5ccccc5nc34)o2)c1`, the TGI in the test with HCC-2998 colon, with HOP-62 NSCLC, with SK-OV-3 ovarian, in the test on SF-268 CNS, in the test with SK-MEL-5 melanoma and in the test on MALME-3M melanoma was above 100 µM throughout. In addition, the TGI in the test with NCI-H522 lung and in the test on HCT-116 colon was above 100 µM each time.
On to `CCNC(=O)OCc1c(COC(=O)NCC)c(-c2ccc(Cl)c(Cl)c2)n2c1CCC2`, for which the TGI with HCC-2998 colon came to 27.7 µM; in the test with HOP-62 NSCLC, 23.8 µM; in the test on SF-268 CNS, 32.8 µM; with SK-MEL-5 melanoma, 29.8 µM; in the test with MALME-3M melanoma, 30.7 µM; in the test with NCI-H522 lung it was 19.8 µM. This molecule also had a TGI in the test with HCT-116 colon of 33.6 µM.
Turning to `CCOc1ccccc1N=Nc1c(-c2ccccc2)nn(C(=O)CC(=O)Nc2cccc(C)c2)c1-c1ccccc1`, the TGI in the test with HCC-2998 colon, with HOP-62 NSCLC, in the test with SK-OV-3 ovarian, in the test with SF-268 CNS, with SK-MEL-5 melanoma and in the test with MALME-3M melanoma was above 100 µM throughout. Moreover, the TGI with NCI-H522 lung and with HCT-116 colon was above 100 µM in each case.
Turning to `N#CC(C(=O)/C(=N\NC(N)=O)C(C#N)c1ccccc1)c1ccccc1` (stereo not given), the TGI in the test with HCC-2998 colon, in the test with HOP-62 NSCLC, in the test with SK-OV-3 ovarian, in the test on SF-268 CNS, in the test with MALME-3M melanoma and with NCI-H522 lung was above 100 µM in each case. The molecule further had a TGI in the test with HCT-116 colon above 100 µM.
